Where a name gives a salt, the structure may show the parent alone.
Assays:
synthesis of TXA2 = details: in words; Prostaglandins, 13, 611 (1977); cited from earlier work
TXA2 synthetase [1] = molecular target: T1, TXA2 synthetase (Oryctolagus cuniculus, UniProt G1TAZ9); assay: Inhibition of Thromboxane A2 Synthetase (rabbit platelet microsomes); format: biochemical; details: 0.1 mM [14C] arachidonic acid, 1 minute, 22° C., compounds as hydrochloride except No. 40 (free base)
T1 construct: The platelet microsome fraction was separated from rabbit and from human blood; from tissue; host or cells: rabbit blood platelets, microsome fraction
T1 sequence (G1TAZ9 1-530): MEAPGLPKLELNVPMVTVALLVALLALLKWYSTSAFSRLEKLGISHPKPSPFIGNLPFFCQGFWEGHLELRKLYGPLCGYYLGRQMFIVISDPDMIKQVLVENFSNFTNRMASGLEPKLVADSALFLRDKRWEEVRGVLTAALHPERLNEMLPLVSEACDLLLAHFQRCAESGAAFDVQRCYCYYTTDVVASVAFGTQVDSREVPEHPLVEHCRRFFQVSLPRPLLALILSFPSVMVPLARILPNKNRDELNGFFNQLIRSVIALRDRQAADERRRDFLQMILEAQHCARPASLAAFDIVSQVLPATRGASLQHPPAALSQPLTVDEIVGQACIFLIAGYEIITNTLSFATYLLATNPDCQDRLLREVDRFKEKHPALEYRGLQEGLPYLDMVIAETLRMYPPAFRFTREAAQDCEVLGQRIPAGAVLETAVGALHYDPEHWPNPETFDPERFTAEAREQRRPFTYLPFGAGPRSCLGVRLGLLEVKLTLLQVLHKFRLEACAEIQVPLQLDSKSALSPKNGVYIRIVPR
Procedure: The platelet microsome fraction was separated from rabbit and from human blood by the method of Needleman et al. [Needleman et al., Science, 193, 163 (1976)]. The microsomal TXA2 synthetase activity in the presence of various of the compounds of the invention at various concentrations was assayed by a modification of the method of […] et al. [[…] et al., Prostaglandins, 21, 543 (1981)] by incubating the microsome fractions with labelled 1-[^14 C] arachidonic acid at a concentration of 0.1 mM for 1 minute at 22° C., to a final volume of 0.2 ml. The reaction was terminated by the addition of […] of 0.2M citric acid, and then the mixture was extracted with 1.5 ml of ethyl acetate. […] The developing solvent for the chromatography was a 90:8:1:0.8 by volume mixture of chloroform, methanol, acetic acid and water. […] The results are shown in the following Table as the IC50, i.e. the concentration required to inhibit the activity of thromboxane synthetase by 50%. […] The compounds of the invention are identified in the following Tables by the numbers heretofore assigned to them. All compounds were employed in the form of the hydrochloride, except Compound No. 40, which was employed as the free base. The results using rabbit platelet microsomes are given in Table 4, whilst the results using human platelet microsomes are given in Table 5.

TXA2 synthetase [2] = molecular target: T2, TXA2 synthetase (Homo sapiens, UniProt P24557); assay: Inhibition of Thromboxane A2 Synthetase (human platelet microsomes); format: biochemical; details: 0.1 mM [14C] arachidonic acid, 1 minute, 22° C., compounds as hydrochloride
T2 construct: The platelet microsome fraction was separated from rabbit and from human blood; from tissue; host or cells: human blood platelets, microsome fraction
T2 sequence (P24557 1-533): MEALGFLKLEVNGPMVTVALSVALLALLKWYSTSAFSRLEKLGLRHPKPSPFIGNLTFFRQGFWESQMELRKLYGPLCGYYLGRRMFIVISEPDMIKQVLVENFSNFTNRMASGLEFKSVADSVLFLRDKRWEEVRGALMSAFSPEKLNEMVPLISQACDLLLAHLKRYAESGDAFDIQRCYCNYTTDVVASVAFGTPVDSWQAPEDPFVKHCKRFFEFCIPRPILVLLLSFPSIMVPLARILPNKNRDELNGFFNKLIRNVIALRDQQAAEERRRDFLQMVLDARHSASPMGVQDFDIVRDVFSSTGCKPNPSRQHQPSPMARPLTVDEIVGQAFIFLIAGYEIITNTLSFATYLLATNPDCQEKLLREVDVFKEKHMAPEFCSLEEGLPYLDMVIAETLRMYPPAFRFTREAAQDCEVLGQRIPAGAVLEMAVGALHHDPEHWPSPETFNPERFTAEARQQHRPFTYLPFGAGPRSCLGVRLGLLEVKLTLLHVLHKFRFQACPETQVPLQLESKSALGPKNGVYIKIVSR
Procedure: The platelet microsome fraction was separated from rabbit and from human blood by the method of Needleman et al. [Needleman et al., Science, 193, 163 (1976)]. The microsomal TXA2 synthetase activity in the presence of various of the compounds of the invention at various concentrations was assayed by a modification of the method of […] et al. [[…] et al., Prostaglandins, 21, 543 (1981)] by incubating the microsome fractions with labelled 1-[^14 C] arachidonic acid at a concentration of 0.1 mM for 1 minute at 22° C., to a final volume of 0.2 ml. The reaction was terminated by the addition of […] of 0.2M citric acid, and then the mixture was extracted with 1.5 ml of ethyl acetate. […] The developing solvent for the chromatography was a 90:8:1:0.8 by volume mixture of chloroform, methanol, acetic acid and water.

[3] = tested on: pulmonary thromboembolisms caused by the intravenous injection of arachidonic acid; assay: Antithrombotic Activity in Rabbits (arachidonic acid i.v. sudden death); format: in vivo, male Japanese white rabbits; details: Oryctolagus cuniculus; oral, 1 hour before 1.3 mg/kg i.v. arachidonic acid; sudden deaths; Probit's method
Procedure: This test was carried out by a modification of the method of Silver et al. [Science, 183, 1085 (1974)]. The test animals used were male Japanese white rabbits of approximately 3 kg bodyweight.
Each group of rabbits was administered orally the test compound at an appropriate dose and then, one hour after the oral administration, each was given 1.3 mg/kg or arachidonic acid by intravenous injection. The test animals were observed and sudden deaths during the test period were recorded. The ED50 was determined by Probit's method.
Unmedicated rabbits were employed as a control, without administering any test compound, but these were all dead within several minutes after the injection of arachidonic acid, as a result of pulmonary thromboembolisms.

Structure (SMILES) | IC50 (TXA2 synthetase [1]) [nM] | further results
Cn1ccnc1 [1-methylimidazole] |  | inhibitory effect on the synthesis of TXA2 (synthesis of TXA2): some inhibitory effect
O=C(O)c1ccc(SC(Cn2ccnc2)c2ccccc2)cc1 (stereo not drawn) [Compound 40, 4-[1-Phenyl-2-(imidazol-1-yl)ethylthio]benzoic acid] | 71 | 
O=C(O)c1ccc(SC(Cn2ccnc2)c2ccc(Cl)cc2Cl)cc1 (stereo not drawn) [Compound 44, 4-[1-(2,4-Dichlorophenyl)-2-(imidazol-1-yl)ethylthio]-benzoic acid hydrochloride] | 47 | 
Cc1cc(C)c(C(Cn2ccnc2)Sc2ccc(C(=O)O)cc2)c(C)c1 (stereo not drawn) [Compound 62, 4-[1-(2,4,6-Trimethylphenyl)-2-(imidazol-1-yl)ethylthio]benzoic acid hydrochloride] | 69 | 
COc1ccccc1C(Cn1ccnc1)Sc1ccc(C(=O)O)cc1.Cl (stereo not drawn) [Compound 70, 4-[1-(2-Methoxyphenyl)-2-(imidazol-1-yl)ethylthio]benzoic acid hydrochloride] | 59 | ED50 [3]: 0.13 mg/kg; IC50 (TXA2 synthetase [2]): 73 nM
Cl.O=C(O)c1ccc(OCCn2ccnc2)cc1 [Dazoxiben, 4-[2-(1-imidazolyl)ethoxy]benzoic acid hydrochloride, reference compound] |  | ED50 [3]: 1.1 mg/kg
c1c[nH]cn1 [imidazole] |  | inhibitory effect on the synthesis of TXA2 (synthesis of TXA2): some inhibitory effect

More lines, main results first:

IC50 (TXA2 synthetase [1]) [nM] | Structure (SMILES) | further results
81 | O=C(O)c1ccc(SC(Cn2ccnc2)c2ccccc2Cl)cc1 (stereo not drawn) [Compound 49, 4-[1-(2-Chlorophenyl)-2-(imidazol-1-yl)ethylthio]benzoic acid hydrochloride] | 
67 | Cc1ccccc1C(Cn1ccnc1)Sc1ccc(C(=O)O)cc1 (stereo not drawn) [Compound 58, 4-[1-(2-Methylphenyl)-2-(imidazol-1-yl)ethylthio]benzoic acid hydrochloride] | IC50 (TXA2 synthetase [2]): 52 nM
40 | COc1ccc(C(Cn2ccnc2)Sc2ccc(C(=O)O)cc2)c(OC)c1 (stereo not drawn) [Compound 74, 4-[1-(2,4-Dimethoxyphenyl)-2-(imidazol-1-yl)ethylthio]benzoic acid hydrochloride] | 
57 | COc1cccc(OC)c1C(Cn1ccnc1)Sc1ccc(C(=O)O)cc1 (stereo not drawn) [Compound 79, 4-[1-(2,6-Dimethoxyphenyl)-2-imidazol-1-yl)ethylthio]benzoic acid hydrochloride] | 
33 | COc1cc(OC)c(C(Cn2ccnc2)Sc2ccc(C(=O)O)cc2)c(OC)c1 (stereo not drawn) [Compound 84, 4-[1-(2,4,6-Trimethoxyphenyl)-2-(imidazol-1-yl)ethylthio]benzoic acid hydrochloride] | 

— patent publication US4894385A, “Imidazole derivatives as inhibitors of TXA2 synthesis” (Sankyo Company Limited, priority 1985, dated 1990)
